# From patent US20150119251A1, “AGRICULTURAL PLANT-PROTECTING AGENTS CONTAINING DIPEPTIDE DERIVATIVE AS ACTIVE INGREDIENT” (REPUBLIC OF KOREA (RURAL DEVELOPMENT ADMINISTRATION), priority 2012, published 2015)
# Square brackets hold non-standard residues; d marks the D form. Peptide text beside a SMILES is read from it. * marks the point of attachment. ξ: configuration not given here. dIle(3ξ) = CCC(C)[C@@H](N)C(=O)O; Ile(3ξ) = CCC(C)[C@H](N)C(=O)O; Boc = CC(C)(C)OC(=O)*; Bz = O=C(c1ccccc1)*; OBn = c1ccc(CO*)cc1; OtBu = CC(C)(C)O*; OAll = C=CCO*
# What was measured:
# [1] = system: pepper phytophthora blight (Phytopthora capsici); experiment: Suppression of pepper phytophthora blight on leaves; assay type: in vivo; details: pepper leaves
# Description: The peppers were raised in the same method as Example 3, and then, the test compounds were dissolved in 20% methanol to make a stock solution, and a stock was diluted to the concentrations of 0.1, 1.0, and 10.0 ppm. The test solutions were sprayed on the leaves or drench-treated on the leaves. After 7 days, the pathogen of plant bacterial rot (Pectobacterium carotovorum SCC1) was cultured in a TSA medium for 27 hours, and then, wetted on an 8 mm diameter paper disc in the concentration of 10^8 cfu/mL. The paper disc was located in the center of the leaves that were cut roundly, and then, after about 7 days, the lesion area was measured. In the case of phytophthora, the potato agar medium cultured with the phytophthora (Phytophthora capsici) was cut in the internal diameter size of 5 mm with a cork borer, and then inoculated to the leaves. After 7 days, the lesion area was observed. In the case of a bacterial rot, when Compounds 6, 89, 93, and 95 were sprayed on the pepper leaves, the bacterial rot was not found in the concentration of 1 or 10 ppm as compared with the non-treated group. […] The Suppression of lesion formation on the leaves when these compounds were drench-treated to the roots can be explained as it was resulted from that systemic disease resistance was induced in the whole plant. These test results are illustrated in the photographs of FIGS. 5 to 9.
# [2] = system: tobacco bacterial rot (Pectobacterium carotovorum); experiment: Suppression of tobacco bacterial rot; assay type: in vivo, Pectobacterium carotovorum SCC1
# Description: A tobacco or cucumber was sown in a plastic pot with a diameter of 10 cm×13 cm, and then, 12 pots were added in a yellow box. After seeding, 100 μL was inoculated to the cotyledons of cucumber or tobacco, in which first leaf was started to come out. The test compounds were dissolved in 20% methanol to make a stock solution, and then, the stock solution was diluted to the concentrations of 1, 10, and 100 ppm.
# After 7 days, the pathogen of a plant bacterial rot (Pectobacterium carotovorum SCC1) was cultured in a TSA medium for 27 hours; and then, the cultured pathogen was sprayed in a concentration of 10^8 cfu/mL to the plant leaves, and cultured at 30° C. for 3 days. The plant anthracnose germ (Colletotrichum orbiculare) was cultured in a GBA (Green bean agar) medium to induce spores for about 2 to 3 weeks. The germ was sprayed in a concentration of 10^5 cell/mL and then cultured at 26° C. for 1 day. When fourth or fifth leaf came out, 200 μL of each of the test compounds was inoculated to third leaf. After 7 days, the pathogen of the plant bacterial rot was sprayed to the plant leaves in the concentration of 10^8 cfu/mL, and then cultured at 30° C. for 3 days.
# The investigation was performed with naked eyes, and the lesion relative areas were investigated until 0 to 100% according to the shortness degrees of the bacterial rot. The anthracnose was investigated by counting the number of lesions occurred on the leaves.
smiles,measurement,setting,value
COC(=O)[C@H](Cc1ccccc1)NC(=O)[C@H](CC(=O)OCc1ccccc1)NC(=O)c1ccccc1 [Compound 101] (Bz-Asp(OBn)-Phe-OMe),Lesion outbreak rate,[1]; 0.1 ppm,11 area %
same,Lesion outbreak rate,[1]; 1.0 ppm,27 area %
COC(=O)CNC(=O)[C@H](CC(C)C)NC(C)=O [Compound 104] (Ac-Leu-Gly-OMe),Lesion outbreak rate,[1]; 0.1 ppm,22 area %
same,Lesion outbreak rate,[1]; 1.0 ppm,18 area %
COC(=O)[C@@H]1CCCN1C(=O)[C@H](N)CS [Compound 78] (H-[dC]-Pro-OMe),Lesion outbreak rate,[1]; 0.1 ppm,58 area %
same,Lesion outbreak rate,[1]; 1.0 ppm,47 area %
COC(=O)[C@H](C)NC(=O)[C@@H](N)C(C)C [Compound 108] (H-Val-Ala-OMe),Lesion outbreak rate,[1]; 0.1 ppm,14 area %
same,Lesion outbreak rate,[1]; 1.0 ppm,18 area %
CCC(C)C(N)C(=O)NC(C)C(=O)OC (stereo not drawn) [Compound 109],Lesion outbreak rate,[1]; 0.1 ppm,25 area %
same,Lesion outbreak rate,[1]; 1.0 ppm,9.4 area %
COC(=O)CNC(=O)[C@H](CO)NC(=O)OC(C)(C)C [Compound 81] (Boc-Ser-Gly-OMe),Lesion outbreak rate,[1]; 0.1 ppm,68 area %
same,Lesion outbreak rate,[1]; 1.0 ppm,58 area %
COC(=O)CNC(=O)[C@@H](NC(C)=O)C(C)C [Compound 103] (Ac-Val-Gly-OMe),Lesion outbreak rate,[1]; 0.1 ppm,15 area %
same,Lesion outbreak rate,[1]; 1.0 ppm,28 area %
COC(=O)CNC(=O)[C@@H]1CCCN1C(C)=O [Compound 105] (Ac-Pro-Gly-OMe),Lesion outbreak rate,[1]; 0.1 ppm,18 area %
same,Lesion outbreak rate,[1]; 1.0 ppm,21 area %
COC(=O)[C@@H](NC(=O)CNC(=O)OC(C)(C)C)C(C)C [Compound 87] (Boc-Gly-Val-OMe),Lesion outbreak rate,[1]; 0.1 ppm,62 area %
same,Lesion outbreak rate,[1]; 1.0 ppm,36 area %
C=CCOC(=O)C[C@H](NC(=O)OC(C)(C)C)C(=O)N[C@@H](Cc1ccccc1)C(=O)OC [Compound 92] (Boc-Asp(OAll)-Phe-OMe),Lesion outbreak rate,[1]; 0.1 ppm,25 area %
same,Lesion outbreak rate,[1]; 1.0 ppm,38 area %
COC(=O)[C@@H]1CCCN1C(=O)CNC(=O)OC(C)(C)C [Compound 106] (Boc-Gly-Pro-OMe),Lesion outbreak rate,[1]; 0.1 ppm,25 area %
same,Lesion outbreak rate,[1]; 1.0 ppm,26 area %
COC(=O)[C@@H](NC(=O)CN)C(C)C [Compound 88] (H-Gly-Val-OMe),Lesion outbreak rate,[1]; 0.1 ppm,35 area %
same,Lesion outbreak rate,[1]; 1.0 ppm,33 area %
C=CCOC(=O)C[C@H](NC(C)=O)C(=O)N[C@@H](Cc1ccccc1)C(=O)OC [Compound 98] (Ac-Asp(OAll)-Phe-OMe),Lesion outbreak rate,[1]; 0.1 ppm,16 area %
same,Lesion outbreak rate,[1]; 1.0 ppm,12 area %
COC(=O)[C@@H]1CCCN1C(=O)[C@H](Cc1ccc(O)cc1)NC(=O)OC(C)(C)C [Compound 32] (Boc-Tyr-Pro-OMe),Lesion outbreak rate,"[2]; Table 4, tobacco, 1 ppm",78%
same,Lesion outbreak rate,"[2]; Table 4, tobacco, 10 ppm",30%
same,Lesion outbreak rate,"[2]; Table 4, tobacco, 100 ppm",60%
COC(=O)[C@@H]1CCCN1C(=O)[C@H](CC(N)=O)NC(=O)OC(C)(C)C [Compound 26] (Boc-Asn-Pro-OMe),Lesion outbreak rate,"[2]; Table 4, tobacco, 1 ppm",63%
same,Lesion outbreak rate,"[2]; Table 4, tobacco, 10 ppm",23%
same,Lesion outbreak rate,"[2]; Table 4, tobacco, 100 ppm",60%
COC(=O)[C@@H]1CCCN1C(=O)[C@@H](C)NC(=O)OC(C)(C)C [Compound 51] (Boc-[dA]-Pro-OMe),Lesion outbreak rate,"[2]; Table 5, tobacco, 10 ppm",0%
same,Lesion outbreak rate,"[2]; Table 5, tobacco, 100 ppm",68%
COC(=O)[C@@H]1CCCN1C(=O)[C@H](CCCNC(=NC(=O)OCc1ccccc1)NC(=O)OCc1ccccc1)NC(=O)OC(C)(C)C [Compound 31],Lesion outbreak rate,"[2]; Table 4, tobacco, 1 ppm",63%
same,Lesion outbreak rate,"[2]; Table 4, tobacco, 10 ppm",56%
same,Lesion outbreak rate,"[2]; Table 4, tobacco, 100 ppm",73%
CC(C)C[C@H](N)C(=O)N[C@@H](C)C(=O)O [Compound 11] (H-Leu-Ala-OH),Lesion outbreak rate,"[2]; Table 3, tobacco, 1 ppm",30%
same,Lesion outbreak rate,"[2]; Table 3, tobacco, 10 ppm",46%
same,Lesion outbreak rate,"[2]; Table 3, tobacco, 100 ppm",21%
COC(=O)[C@H]1CCCN1C(=O)[C@H](CCCCNC(=O)OC(C)(C)C)NC(=O)OC(C)(C)C [Compound 48] (Boc-Lys(Boc)-[dP]-OMe),Lesion outbreak rate,"[2]; Table 5, tobacco, 10 ppm",25%
same,Lesion outbreak rate,"[2]; Table 5, tobacco, 100 ppm",50%
CCC(C)[C@@H](NC(=O)OC(C)(C)C)C(=O)N1CCC[C@H]1C(=O)OC (stereo partly drawn) [Compound 58] (Boc-[dIle(3ξ)]-Pro-OMe),Lesion outbreak rate,"[2]; Table 5, tobacco, 10 ppm",28%
same,Lesion outbreak rate,"[2]; Table 5, tobacco, 100 ppm",13%
CCC(C)[C@H](NC(=O)OC(C)(C)C)C(=O)N1CCC[C@@H]1C(=O)OC (stereo partly drawn) [Compound 34] (Boc-[Ile(3ξ)]-[dP]-OMe),Lesion outbreak rate,"[2]; Table 4, tobacco, 1 ppm",35%
same,Lesion outbreak rate,"[2]; Table 4, tobacco, 10 ppm",41%
same,Lesion outbreak rate,"[2]; Table 4, tobacco, 100 ppm",24%
COC(=O)[C@H]1CCCN1C(=O)[C@H](CCC(=O)OC(C)(C)C)NC(=O)OC(C)(C)C [Compound 50] (Boc-Glu(OtBu)-[dP]-OMe),Lesion outbreak rate,"[2]; Table 5, tobacco, 10 ppm",35%
same,Lesion outbreak rate,"[2]; Table 5, tobacco, 100 ppm",60%
COC(=O)[C@@H]1CCCN1C(=O)[C@@H](Cc1ccc(O)cc1)NC(=O)OC(C)(C)C [Compound 53] (Boc-[dY]-Pro-OMe),Lesion outbreak rate,"[2]; Table 5, tobacco, 10 ppm",45%
same,Lesion outbreak rate,"[2]; Table 5, tobacco, 100 ppm",50%
COC(=O)[C@H]1CCCN1C(=O)[C@H](CC(N)=O)NC(=O)OC(C)(C)C [Compound 41] (Boc-Asn-[dP]-OMe),Lesion outbreak rate,"[2]; Table 4, tobacco, 1 ppm",30%
same,Lesion outbreak rate,"[2]; Table 4, tobacco, 10 ppm",50%
same,Lesion outbreak rate,"[2]; Table 4, tobacco, 100 ppm",18%
COC(=O)[C@H]1CCCN1C(=O)[C@@H]1CCCN1C(=O)OC(C)(C)C [Compound 33] (Boc-Pro-[dP]-OMe),Lesion outbreak rate,"[2]; Table 4, tobacco, 1 ppm",80%
same,Lesion outbreak rate,"[2]; Table 4, tobacco, 10 ppm",38%
same,Lesion outbreak rate,"[2]; Table 4, tobacco, 100 ppm",18%
COC(=O)[C@@H]1CCCN1C(=O)[C@@H](NC(=O)OC(C)(C)C)C(C)C [Compound 21] (Boc-Val-Pro-OMe),Lesion outbreak rate,"[2]; Table 6, tobacco, 1 ppm",37%
same,Lesion outbreak rate,"[2]; Table 6, tobacco, 10 ppm",46%
same,Lesion outbreak rate,"[2]; Table 6, tobacco, 100 ppm",35%
COC(=O)[C@H]1CCCN1C(=O)[C@@H](NC(=O)OC(C)(C)C)C(C)C [Compound 49] (Boc-Val-[dP]-OMe),Lesion outbreak rate,"[2]; Table 5, tobacco, 10 ppm",23%
same,Lesion outbreak rate,"[2]; Table 5, tobacco, 100 ppm",0%
COC(=O)CNC(=O)[C@H](CC(C)C)NC(=O)OC(C)(C)C [Compound 3] (Boc-Leu-Gly-OMe),Lesion outbreak rate,"[2]; Table 3, tobacco, 1 ppm",13%
same,Lesion outbreak rate,"[2]; Table 3, tobacco, 10 ppm",68%
same,Lesion outbreak rate,"[2]; Table 3, tobacco, 100 ppm",80%
COC(=O)[C@H]1CCCN1C(=O)[C@@H](C)NC(=O)OC(C)(C)C [Compound 70] (Boc-[dA]-[dP]-OMe),Lesion outbreak rate,"[2]; Table 6, tobacco, 1 ppm",80%
same,Lesion outbreak rate,"[2]; Table 6, tobacco, 10 ppm",72%
same,Lesion outbreak rate,"[2]; Table 6, tobacco, 100 ppm",77%
COC(=O)[C@H]1CCCN1C(=O)[C@@H](Cc1ccccc1)NC(=O)OC(C)(C)C [Compound 65] (Boc-[dF]-[dP]-OMe),Lesion outbreak rate,"[2]; Table 6, tobacco, 1 ppm",80%
same,Lesion outbreak rate,"[2]; Table 6, tobacco, 10 ppm",57%
same,Lesion outbreak rate,"[2]; Table 6, tobacco, 100 ppm",55%
COC(=O)[C@@H]1CCCN1C(=O)[C@H](CC(C)C)NC(=O)OC(C)(C)C [Compound 22] (Boc-Leu-Pro-OMe),Lesion outbreak rate,"[2]; Table 6, tobacco, 1 ppm",35%
same,Lesion outbreak rate,"[2]; Table 6, tobacco, 10 ppm",24%
same,Lesion outbreak rate,"[2]; Table 6, tobacco, 100 ppm",46%
COC(=O)[C@@H]1CCCN1C(=O)[C@@H](CCSC)NC(=O)OC(C)(C)C [Compound 63] (Boc-[dM]-Pro-OMe),Lesion outbreak rate,"[2]; Table 5, tobacco, 10 ppm",56%
same,Lesion outbreak rate,"[2]; Table 5, tobacco, 100 ppm",52%
COC(=O)[C@H]1CCCN1C(=O)[C@H](CCC(N)=O)NC(=O)OC(C)(C)C [Compound 45] (Boc-Gln-[dP]-OMe),Lesion outbreak rate,"[2]; Table 4, tobacco, 1 ppm",83%
same,Lesion outbreak rate,"[2]; Table 4, tobacco, 10 ppm",33%
same,Lesion outbreak rate,"[2]; Table 4, tobacco, 100 ppm",55%
COC(=O)[C@@H]1CCCN1C(=O)[C@@H](CCC(N)=O)NC(=O)OC(C)(C)C [Compound 54] (Boc-[dQ]-Pro-OMe),Lesion outbreak rate,"[2]; Table 5, tobacco, 10 ppm",36%
same,Lesion outbreak rate,"[2]; Table 5, tobacco, 100 ppm",60%
COC(=O)[C@H]1CCCN1C(=O)[C@H](Cc1ccccc1)NC(=O)OC(C)(C)C [Compound 42] (Boc-Phe-[dP]-OMe),Lesion outbreak rate,"[2]; Table 4, tobacco, 1 ppm",43%
same,Lesion outbreak rate,"[2]; Table 4, tobacco, 10 ppm",60%
same,Lesion outbreak rate,"[2]; Table 4, tobacco, 100 ppm",45%
